This is an account of results in patent US20250034169A1, “NOVEL PYRIMIDOPYRIDINE COMPOUND, PHARMACEUTICAL COMPOSITION THEREOF, AND USE THEREOF” (SUNSHINE LAKE PHARMA CO., LTD., priority 2021, published 2025).

A short description of data set [1]: Stability in human liver microsomes. The format is in vitro ADME. To be noted: 1 μM; for CLHep / predicted in vivo clearance / ER: human liver microsomes; for ER: slow ER < 0.3, moderate 0.3 < ER < 0.7, fast ER > 0.7; for microsomal CLint at 1 μM / half-life at 1 μM: pH 7.4, human liver microsomes 0.5 mg/mL, 37° C.; for microsomal CLint at 1 μM: read-out: CLint; for half-life at 1 μM: read-out: T1/2. Here is the method:
(§1) Objective: To evaluate the stability of the compounds of the present invention in human and mouse liver microsomes by LC-MS/MS.
(§2) The ratio of the sample peak area to the internal standard peak area was obtained by LC/MS/MS, and the content of the compounds at 0 min was regarded as 100%, and the relative content of the compounds at each time point was calculated. The half-life of the compound was calculated by plotting the “relative content of the compound” against the “incubation time”, and the intrinsic clearance was calculated, in which the half-life and intrinsic clearance of the compound in human and mouse liver microsomes were determined in Table 3 and Table 4, respectively.

Data set [2] has as its target KRAS G12D-GTP & cRAF (Homo sapiens (Human), UniProt P01116, G12D). Kind of data set: KRAS G12D/cRAF binding experiment (HTRF). To be noted: competitive binding. A general note: TR-FRET usually uses a lanthanide donor and a delayed reading to cut background.
Data set [3] has as its target KRAS G12D-GTP & SOS1 (Homo sapiens (Human), UniProt P01116, G12D). Nature of the data set: KRAS G12D/SOS1 binding experiment (HTRF). Particulars: competitive binding.
The nature of data set [4]: in vivo. More on the design: species or system BALB/c mice. To be noted: BALB/c, mouse, 2 mg/kg. Here is the method:
The inventors performed a pharmacokinetic evaluation of the compounds of the present invention in mice.
The compound of the present invention was in the form of a solution of 5% DMSO+30% PEG400+65% Saline, 10% DMSO+10% Kolliphor HS15+80% Saline, 10% DMSO+89%(25% SBE-B-CD)+(2% HCl), 20% PEG400+80% sterilize water for injection or 10% DMA+10% HS15+30% PEG400+50% sterilize water for injection, the test animals were administered, and the animals were fasted for 12 h before administration, and water was free to drink. The test animals were administered intravenously at a dose of 2 mg/kg, blood (approximately 0.15 mL) was taken intravenously at the following time points after administration: 0.083 h, 0.25 h, 0.5 h, 1.0 h, 2.0 h, 5.0 h, 7.0 h, and 24 h, EDTA-K2 was pre-added as an anticoagulant in the blood collection tube, the blood samples were centrifuged at 12,000 rpm for 2 min, then plasma was collected and stored at −20° C. or −70° C.
The plasma samples collected above were treated (after the frozen plasma thawed at room temperature, vortexed for 15 s for mixing, 10-20 μL of plasma was taken and added with 120-150 μL of acetonitrile solution containing internal standard, the mixture was vortexed for 5 min for mixing, then centrifuged at 4,000 rpm for 5 min, 100 μL of supernatant was taken, and 120-150 μL of methanol/water (v/v=1/1) was added to mix), and the compound concentration in plasma was analyzed by LC-MS/MS. The pharmacokinetic parameters of the compounds of the present invention for intravenous administration in mice are shown in Table 5.

Data set [5] is described as follows: Stability in mouse liver microsomes. Particulars: 1 μM; for CLHep / CLin vivo / ER: mouse liver microsomes; for ER: slow ER < 0.3, moderate 0.3 < ER < 0.7, fast ER > 0.7; for microsomal CLint at 1 μM / half-life at 1 μM: pH 7.4, mouse liver microsomes 0.5 mg/mL, 37° C.; for microsomal CLint at 1 μM: read-out: CLint; for half-life at 1 μM: read-out: T1/2. The format is in vitro ADME. Here is the method:
as §1, §2
(In general: Microsomes from liver hold many membrane-bound enzymes, among them those of drug oxidation.)

Data set [6] concerns intracellular pERK. Kind of data set: Inhibitory effect on intracellular pERK, In-Cell Western, AGS cells. To be noted: Homo sapiens, read-out: Inhibitory effect on intracellular pERK, IC50. The format is cell-based.

Read-outs that look alike come from different tables or passages of the source.

KRAS G12D-GTP & SOS1, sequence (P01116-2 other isoform, or with tags, fused parts or gaps G12D): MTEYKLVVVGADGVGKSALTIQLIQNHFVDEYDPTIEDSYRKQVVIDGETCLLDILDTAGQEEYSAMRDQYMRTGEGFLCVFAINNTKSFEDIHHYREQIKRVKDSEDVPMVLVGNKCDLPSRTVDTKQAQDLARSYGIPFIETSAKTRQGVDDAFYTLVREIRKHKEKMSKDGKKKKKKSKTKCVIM
KRAS G12D-GTP & cRAF, sequence (P01116-2 other isoform, or with tags, fused parts or gaps G12D): as above

With `C#Cc1nc(-c2cc(O)cc3cccc(Cl)c23)c(F)c2nc(OC[C@@]34CCCN3C[C@H](F)C4)nc(N3CC4CCC(C3)N4)c12` [Compound 67], in data set [1], the CLHep came to 0.87 L/h/kg, the “predicted in vivo clearance” value was 0.51 L/h/kg, the ER was 0.41 and the microsomal CLint at 1 μM is 11.6 µL/min/mg. In addition, the half-life at 1 μM in data set [1] was found to be 119 min. The IC50 (commonly the point on the concentration scale where inhibition reaches its midpoint) in data set [2] was 5.4 nM. The molecule further registered a half-inhibitory concentration (IC50) in data set [3] of 13.5 nM. Also, in data set [4] (iv), the AUC(0-inf) turned out to be 3.23 µg·h/mL, the AUC(0-t) was found to be 3.21 µg·h/mL, the Cmax (commonly the peak of the concentration-time curve) came out at 4.3 µg/mL and the MRT last came out at 45 min. For the same molecule, in data set [4] (iv), the Tmax – broadly, the time from dosing to the highest level – is 4.98 min; the Vd is 0.5 L/kg; the clearance stood at 0.6 L/h/kg; the half-life was 52.2 min. Moreover, in data set [5], the CLHep is 10.71 L/h/kg, the CLin vivo was 3.59 L/h/kg, the ER came out at 0.66 and the microsomal CLint at 1 μM worked out at 45.3 µL/min/mg. In data set [5], the half-life at 1 μM amounted to 30.6 min. In addition, in data set [6] (AGS cells, 3 h incubation, In-Cell Western), the 50% inhibitory concentration (IC50) stood at 0.4 nM.

Regarding `C#Cc1c(F)ccc2cc(O)cc(-c3nc(C#C)c4c(N5CC6CCC(C5)N6)nc(OC[C@@]56CCCN5C[C@H](F)C6)nc4c3F)c12` [Compound 23], in data set [1], the CLHep came to 1.38 L/h/kg, the “predicted in vivo clearance” value is 0.654 L/h/kg, the ER is 0.53 and the microsomal CLint at 1 μM came out at 18.4 µL/min/mg. Moreover, in data set [1], the half-life at 1 μM worked out at 75.3 min. For the same molecule, in data set [4] (mice, intravenous, read-out: AUCINF), the AUC(0-inf) is 2.16 µg·h/mL. Further, in data set [4] (mice, intravenous, read-out: AUClast), the AUC(0-t) came out at 2.14 µg·h/mL. Also, in data set [4] (mice, intravenous, read-out: Cl), the clearance came out at 0.96 L/h/kg. Further, in data set [4] (mice, intravenous, read-out: Cmax), the Cmax was found to be 3.55 µg/mL. Besides, the MRT last in data set [4] (mice, intravenous, read-out: MRTlast) turned out to be 42 min. For the same molecule, the half-life in data set [4] (mice, intravenous, read-out: T1/2 (converted)) is 50.4 min. For the same molecule, in data set [4] (mice, intravenous, read-out: Tmax), the Tmax is 4.98 min. In data set [4] (mice, intravenous, read-out: Vss), the Vd came out at 0.69 L/kg. Also, in data set [5], the CLHep came to 11.24 L/h/kg, the CLin vivo came out at 3.65 L/h/kg, the ER is reported as 0.68 and the microsomal CLint at 1 μM stood at 47.6 µL/min/mg. Moreover, in data set [5], the half-life at 1 μM amounted to 29.1 min. Besides, the IC50 in data set [6] (AGS, 3 h) was 0.6 nM.
